From the supplement of paper PMC10307832

Assays:
Test in all cases: relative viability (nuclei count vs DMSO), 5 days (fraction); higher = more cells survive
[1] = compound: N=C1NC(=O)/C(=C/c2ccc(O)cc2)S1 [Mirin] + CC(=O)Nc1cccc(-n2c(=O)n(C3CC3)c(=O)c3c(Nc4ccc(I)cc4F)n(C)c(=O)c(C)c32)c1 [Trametinib] (partner 0.02 µM)
Method in brief: (§1)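 The day after seeding in 1536-well plates, lung cancer cell lines were treated by pin tool with a single drug, or with a fixed anchor-drug dose together with five library-drug doses (not always all listed) in √10 steps. After 5 days, a combined fix-and-stain solution (final 0.05% Triton X-100, 1% formaldehyde, 1 ug/ml Hoechst) was added. Nuclei counted on 4× images gave relative viability as treated counts over vehicle counts, reported as the median of duplicate plates.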

[2] = compound: CCC1=CN=CN=C1N2CCN(CC2)CC3=NC4=C(N3)C=C(C=C4)C(F)(F)F + CCNC(=O)c1noc(-c2cc(C(C)C)c(O)cc2O)c1-c1ccc(CN2CCOCC2)cc1 [Luminespib] (partner 0.01 µM)
Method in brief: as §1

[3] = compound: CCC1=CN=CN=C1N2CCN(CC2)CC3=NC4=C(N3)C=C(C=C4)C(F)(F)F + CS(=O)(=O)N1CCN(Cc2cc3nc(-c4cccc5[nH]ncc45)nc(N4CCOCC4)c3s2)CC1 [Pictilisib] (partner 1 µM)
Method in brief: as §1

[4] = compound: CCC1=CN=CN=C1N2CCN(CC2)CC3=NC4=C(N3)C=C(C=C4)C(F)(F)F + CC(C)C[C@H](NC(=O)[C@H](Cc1ccccc1)NC(=O)c1cnccn1)B(O)O [Bortezomib] (partner 0.002 µM)
Method in brief: as §1

Row | Cell Line | relative viability ([1]; first compound 0.25 µM) | relative viability ([1]; first compound 0.7906 µM) | relative viability ([1]; first compound 2.5 µM) | relative viability ([1]; first compound 7.906 µM) | relative viability ([1]; first compound 25 µM) | relative viability ([2]; first compound 0.04 µM) | relative viability ([2]; first compound 0.1265 µM) | relative viability ([2]; first compound 0.4 µM) | relative viability ([2]; first compound 1.265 µM) | relative viability ([2]; first compound 4 µM) | relative viability ([3]; first compound 0.04 µM) | relative viability ([3]; first compound 0.1265 µM) | relative viability ([3]; first compound 0.4 µM) | relative viability ([3]; first compound 4 µM) | relative viability ([3]; first compound 1.265 µM) | relative viability ([4]; first compound 0.04 µM) | relative viability ([4]; first compound 0.1265 µM) | relative viability ([4]; first compound 0.4 µM) | relative viability ([4]; first compound 1.265 µM) | relative viability ([4]; first compound 4 µM)
1 | SW 900 | 0.95 | 0.76 | 0.826 | 0.971 | 0.653 | 0.165 | 0.194 | 0.158 | 0.177 | 0.195 |  |  |  |  |  |  |  |  |  | 
2 | NCI-H1944 | 0.35 | 0.397 | 0.387 | 0.387 | 0.32 | 0.993 | 0.677 | 0.688 | 0.513 | 0.573 | 0.361 | 0.335 | 0.325 | 0.328 |  |  |  |  |  | 
3 | NCI-H838 | 0.548 | 0.577 | 0.52 | 0.528 | 0.513 | 0.271 | 0.229 | 0.308 | 0.342 | 0.327 | 0.507 | 0.531 | 0.41 | 0.482 | 0.258 | 0.945 | 0.747 | 0.782 | 0.597 | 1.03
4 | NCI-H1650 | 0.534 | 0.544 | 0.579 | 0.551 | 0.62 | 0.212 | 0.207 | 0.186 |  | 0.213 | 0.525 | 0.586 | 0.558 | 0.818 | 0.306 | 0.18 | 0.222 | 0.199 | 0.211 | 0.19
5 | HCC-827 | 0.529 | 0.471 | 0.584 | 0.607 | 0.547 | 0.687 | 0.588 | 0.544 |  | 0.587 | 0.978 | 1.04 | 1.03 | 0.994 | 0.957 | 1.01 | 0.997 | 1.02 | 0.95 | 0.953
6 | HCC-366 | 0.382 | 0.348 | 0.33 | 0.337 | 0.28 |  |  |  |  |  | 0.242 | 0.124 | 0.133 | 0.134 |  | 1 | 1.06 | 1.05 |  | 1.01
7 | HARA | 0.886 |  | 0.795 | 0.674 | 0.523 | 0.668 | 0.561 | 0.682 |  | 0.555 | 0.311 | 0.326 | 0.321 | 0.471 | 0.302 | 1.12 | 1.05 | 1.06 | 1.01 | 0.964
8 | NCI-H441 | 0.528 | 0.404 | 0.428 | 0.557 | 0.508 | 0.387 | 0.345 | 0.315 | 0.358 | 0.396 | 0.571 | 0.435 | 0.451 | 0.418 | 0.435 | 0.523 | 0.366 | 0.301 | 0.356 | 0.383
9 | LXF-289 | 0.694 | 0.726 | 0.635 | 0.665 | 0.828 | 0.701 | 0.64 | 0.685 | 0.63 | 0.676 | 0.744 | 0.793 | 0.762 | 0.754 | 0.646 | 1.07 | 0.953 | 0.971 | 1.04 | 0.917
